Results reported in patent US20110256121A1, “METHODS AND KITS FOR DIAGNOSING OR MONITORING AUTOIMMUNE AND CHRONIC INFLAMMATORY DISEASES” (THE REGENTS OF THE UNIVERSITY OF MICHIGAN, priority 2008, published 2011).

Experiments:
CD70 expression = CD70 expression on CD4+ cells of PBMCs cultured with lupus medications; type: cell-based, human; settings: 1-100 μM, 24 hours, PBMCs with or without PHA
Protocol: (§1) Cells and cell culture. Peripheral blood mononuclear cells (PBMCs) were isolated by density-gradient centrifugation. T cells were then isolated by E-rosetting (See, e.g., Golbus et al., Clin Immunol Immunopathol 46, 129 (1988)). […] Where indicated, the cells were cultured in RPMI 1640/10% fetal calf serum (FCS) supplemented with interleukin-2 (IL-2) (See, e.g., Richardson et al., Clin Immunol Immunopathol 55, 368 (1990)), in round-bottomed 5-ml culture tubes (Falcon). Cells were stimulated with 1 μg/ml of PHA (Remel) for 16 hours, then cultured in 24-well plates at a density of 1×10^6 for an additional 72 hours in the presence of 2-deoxy-5-azaC or 5-azaC (Sigma-Aldrich), procainamide (Sigma-Aldrich), hydralazine (Sigma-Aldrich), or the MEK inhibitors U0126 (Promega) or PD98059 (Promega). In other studies, PHA-stimulated PBMCs were cultured in RPMI 1640/10% FCS and treated with indomethacin, chloroquine, hydrocortisone, and 6-mercaptopurine (6-MP) (all from Sigma-Aldrich). TT48E, a cloned, CD4+, tetanus toxoid-reactive human T cell line, was cultured as previously described (Cornacchia et al., J Immunol 140, 2197 (1988); Richardson et al., Arthritis Rheum 35, 647 (1992)).
(§2) Flow cytometric analysis. The following fluorochrome-conjugated monoclonal antibodies were obtained from BD PharMingen (San Diego, Calif.): FITC-conjugated anti-human CD70, CD2, or isotype-matched controls; phycoerythrin (PE)-conjugated anti-CD2, CD4, and CD8; and CyChromeconjugated anti-HLA-DR, CD2, and isotype controls. Staining and multicolor flow cytometric analysis were performed (See, e.g., Hale et al., Cell Immunol 220, 51 (2002)) using saturating concentrations of antibody.

T cell CD70 expression = assay: CD70 expression on PHA-stimulated T cells by flow cytometry; type: cell-based, human; settings: for CD70 expression on treated vs untreated PHA-stimulated T cells: unfractionated T cells, 3 days, 1 μM 5-azaC, dose-response for procainamide, PD98059, U0126
Protocol: as §1, §2
The panel of inhibitors used included 5-azaC, an irreversible DNA methyltransferase inhibitor (See, e.g., Glover and Leyland-Jones, Cancer Treat Rep 71, 959 (1987)) procainamide, a competitive DNA methyltransferase inhibitor (See e.g., Scheinbart et al., J Rheumatol 18, 530 (1991)), and the ERK pathway inhibitors PD98059, U0126, and hydralazine.
Studies were performed examining the effects of the DNA methylation inhibitors on CD70 expression in CD4+ and CD8+ T cell subsets.

CD70 mRNA = assay: CD70 transcripts by real time RT-PCR in anti-CD3 + anti-CD28 stimulated CD4+ T cells; type: cell-based, human; settings: 5 μm 5-azaC, 50 μm Pca, 20 μm Hyd, 40 μm U0126, 25 μm PD98059, 3 days
Protocol: (§3) In other studies, T cells were isolated by negative selection using magnetic beads and instructions provided by the manufacturer (Pan T cell Isolation Kit, Miltenyi), and the CD4+ or CD8+ subset was similarly isolated by magnetic cell sorting. Jurkat cells (E6-1) were cultured as previously described (See, e.g., Cornacchia et al., J Immunol 140:2197 (1998)). Purified human CD4+ T cells were first stimulated with plate bound anti-CD3 and soluble anti-CD28. Briefly, 24 well plates were coated with 300 μl of anti-CD3 (10 μg/ml in PBS—SouthernBiotech) 18 hours 4° C., washed, then 2×10^6 purified T cells were added to the wells in 2 ml RPMI 1640/10% FCS containing 2 μg/ml anti-CD28 (SouthernBiotech). The plates were incubated 37° C. in a humidified atmosphere containing 5% CO2 for 18-24 hours, then treated with 5 μm 5-azaC (Aldrich), 50 μm Pca (Sigma), 20 μm Hyd (Aldrich), 40 μm UO126 (Promega) or 25 μm PD98059 (Promega), and cultured for 3 additional days as described (See, e.g., Oelke et al., Arthritis Rheum 50:1850 (2004)).

CD70 promoter = assay: Bisulfite sequencing of the CD70 promoter in CD4+ T cells; type: cell-based, human; settings: for methylation of the 10 CG pairs between −515 and −423 of the CD70 promoter: anti-CD3 and anti-CD28 stimulated CD4+ T cells vs stimulated untreated controls
Protocol: as §3
Bisulfite sequencing. The putative CD70 promoter was identified using the published CD70 cDNA sequence and Tfsitescan software. Deoxycytosine (dC) and deoxymethylcytosine (d^mC) bases in the gene promoter and 5′ flanking sequences were identified by bisulfite treatment of purified DNA followed by nested PCR amplification of 3 sequential fragments to span the entire region. The primers were designed to avoid CG pairs and to account for the conversion of dC to dU by the bisulfite. EcoRI sites were added to the forward primers, and XbaI to the reverse, to facilitate cloning. The amplified fragments were then cloned into PBS+, and 5 clones sequenced for each fragment. The primers used were: […]
The effect of lupus and DNA methylation inhibitors on a regulatory element in the CD70 promoter was examined. DNA was isolated from the CD4+ T cells of 7 healthy individuals or 6 lupus patients, bisulfite treated, the region from −466-−515, containing 6 CG pairs was amplified by PCR, and 5 fragments sequenced from each individual. The average methylation status of the 6 CG pairs for healthy versus lupus individuals is shown (FIG. 8, NI and Lupus, respectively). CD4+ T cells from 5 individuals were also stimulated with PHA, treated with the irreversible DNA methyltransferase inhibitor 5-azacytidine (5-azaC), and the methylation status of the 6 CG pairs similarly analyzed from the 25 fragments sequenced (FIG. 8, 5-azaC). […] Results are presented as the mean±SEM of the average methylation of the 6 CG pairs, measured from the 10-35 determinations/group.
The effects of the DNA methylation inhibitors on the methylation status of this region were then compared. […] Again, 5 cloned fragments were sequenced from each control, for a total of 35 determinations per CG pair. […] FIG. 14 compares the average methylation for the 10 CG pairs (−515 to −423) in the T cells treated with DNA methylation inhibitors relative to stimulated, untreated controls.

T cell genes = settings: PHA-stimulated T cells, 2-deoxy-5-azaC
[1] = molecular target: KIR3DL1 on human T cells (human) (UniProt P43629); assay: cell-based or functional assay
Sequence of KIR3DL1 on human T cells (human) (P43629 22-444): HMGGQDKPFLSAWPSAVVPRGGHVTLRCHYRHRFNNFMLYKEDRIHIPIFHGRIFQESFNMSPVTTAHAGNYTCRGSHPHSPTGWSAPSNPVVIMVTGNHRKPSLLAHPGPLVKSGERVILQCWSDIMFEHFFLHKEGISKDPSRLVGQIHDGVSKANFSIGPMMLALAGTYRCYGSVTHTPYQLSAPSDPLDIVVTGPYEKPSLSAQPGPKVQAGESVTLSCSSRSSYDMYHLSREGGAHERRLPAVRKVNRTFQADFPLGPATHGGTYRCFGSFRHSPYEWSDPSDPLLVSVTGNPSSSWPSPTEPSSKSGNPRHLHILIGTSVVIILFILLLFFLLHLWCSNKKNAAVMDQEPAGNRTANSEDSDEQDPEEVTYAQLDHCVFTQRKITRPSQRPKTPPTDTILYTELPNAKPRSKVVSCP

CCN(CC)CCCC(C)Nc1ccnc2cc(Cl)ccc12 (stereo not drawn) [chloroquine]
CD70 expression on stimulated or unstimulated CD4+ cells (CD70 expression): No increase in CD70 expression was seen

Sc1ncnc2nc[nH]c12 [6-MP, 6-mercaptopurine]
CD70 expression on stimulated or unstimulated CD4+ cells (CD70 expression): No increase in CD70 expression was seen

CCN(CC)CCNC(=O)c1ccc(N)cc1 [procainamide]
CD70 expression on CD4+ T cells (T cell CD70 expression): increased CD70 expression on CD4+ T cells
CD70 expression on treated vs untreated PHA-stimulated T cells (T cell CD70 expression): increase in the ratio of the mean fluorescence intensity (MFI) of CD70 expression
CD70 transcripts relative to β-actin, treated vs untreated (CD70 mRNA): increase CD70 transcripts
methylation of the CD70 promoter region −466-−515 (6 CG pairs) (CD70 promoter; PHA-stimulated CD4+ T cells): demethylate this region
methylation of the 10 CG pairs between −515 and −423 of the CD70 promoter (CD70 promoter): appears to demethylate

COc1cccc(-c2cc(=O)c3ccccc3o2)c1N [PD98059]
increase of CD70 MFI on CD4+ T cells (T cell CD70 expression; 25 μM PD98059, n=3, P=0.032): 1.63±0.43 fold
CD70 expression on CD4+ T cells (T cell CD70 expression): increased CD70 expression on CD4+ T cells
CD70 expression on treated vs untreated PHA-stimulated T cells (T cell CD70 expression): increase in CD70 expression with treatment
CD70 transcripts relative to β-actin, treated vs untreated (CD70 mRNA): increase CD70 transcripts
methylation of the 10 CG pairs between −515 and −423 of the CD70 promoter (CD70 promoter): appears to demethylate

Nc1ncn([C@H]2C[C@H](O)[C@@H](CO)O2)c(=O)n1 [2-deoxy-5-azaC]
CD70 expression increase in treated cells relative to untreated controls (T cell genes; 3 days, oligonucleotide arrays, mean±SEM, 2 independent experiments): 2.6±0.6 fold
genes decreased ≧2-fold (T cell genes; treated vs untreated): 12 genes
genes reproducibly increased ≧2-fold (T cell genes; treated vs untreated): 118 genes

C[C@]12CCC(=O)C=C1CC[C@@H]1[C@@H]2[C@@H](O)C[C@@]2(C)[C@H]1CC[C@]2(O)C(=O)CO [hydrocortisone]
CD70 expression on stimulated or unstimulated CD4+ cells (CD70 expression): No increase in CD70 expression was seen

anti-NKB1 (KIR3DL1) antibody (BD PharMingen)
% cytotoxicity (51Cr release from autologous monocytes/macrophages) (% cytotoxicity) [1]: 37

COc1ccc2c(c1)c(CC(=O)O)c(C)n2C(=O)c1ccc(Cl)cc1 [indomethacin]
CD70 expression on stimulated or unstimulated CD4+ cells (CD70 expression): No increase in CD70 expression was seen
